“Also recorded” adds a separate entry of the source. Like-named read-outs stand apart in the source and are kept apart here.
Columns and labels:
K562 cells = assay: K562 cell growth inhibition; type: cell-based, human; settings: 72 hours
In short: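 Human erythroleukemia K562 cells exposed to compound for 72 hours. Cell number measured with CCK-8 and viability expressed relative to the DMSO control.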

GGTase-I = target: T1, GGTase-I (Rattus norvegicus, UniProt P53610+Q04631); assay: In vitro GGTase-I enzyme assay (IC50, kinetics); type: biochemical; settings: for IC50: read-out: In vitro (enzyme assay) IC50, GGTase I
T1 construct: purchased JENA BIOSCIENCE
In short: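 Rat GGTase-I (50 nM) with 0.5 μM [3H]-GGPP and 2 μM MBP-RhoA in Tris-HCl pH 7.5, MgCl2, ZnCl2, DTT, 2.5% DMSO, 10 min at 30 °C; radiolabel incorporation by TCA filter binding and scintillation. Kinetics: 5 min reactions varying GGPP or RhoA at fixed other components.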

FTase = target: T2, FTase (Rattus norvegicus, UniProt Q02293+Q04631); assay: In vitro FTase assay (K-Ras4B substrate, [3H]FPP); type: biochemical
T2 construct: purchased JENA BIOSCIENCE
Description: To further characterize the pilot library, inhibitors of protein farnesyltransferase were identified. This was accomplished by using K-Ras4B as a substrate protein, tritiated farnesylpyrophosphate ([^3H]FPP) and protein farnesyltransferase. See Finegold, A. A., Johnson, D. I., Farnsworth, C. C., Gelb, M. H., Judd, S. R., Glomset, J. A. and Tamanoi, F. (1991) Protein geranylgeranyltransferase of Saccharomyces cerevisiae is specific for Cys-Xaa-Xaa-Leu motif and requires the CDC43 gene product but not the DPR1 gene product. Proc. Natl. Acad. Sci. USA 88, 4448-4452. […] On the other hand, the structure of the compounds P1-F11, P2-B7 and P2-E9 resemble those of GGTIs. The FTI P1-F11 resembles the GGTI P1-F10, while the FTI P2-B7 resembles the GGTI P2-C10. The FTI P2-E9 is similar to the GGTI P2-G3. Similarity of some GGTI and FTI compounds may point to common structural features between the two closely related enzymes. As described before, FTase and GGTase I have similar three-dimensional structures and a shared alpha subunit. On the other hand, FTase specific inhibitors may recognize a region(s) that is different between the two enzymes.
Examples 2-8 illustrate assays of bioactivity. These methods are applicable to the compounds of the present invention having the particular linkers and scaffolds described herein, to determine their activity. […] Varying concentrations of the two compounds were added to each enzyme reaction. The FTase (protein farnesyltransferase) assay was carried out using K-Ras4B as a substrate protein, FTase (JENA Bioscience, San Diego, Calif.) and [3H]farnesyl pyrophosphate. Incubation was for 30 min at 37° C.
GGTase-I and FTase activities were determined by following the incorporation of radiolabeled isoprenoid [^3H]-geranylgeranyl or [^3H]-farnesyl into substrate proteins. FTase or GGTase-I (50 nM) were used to initiate reactions containing 0.4 μM of [^3H]-FPP or 0.5 μM of [^3H]-GGPP and 2 μM of MBP-tagged substrates (K-Ras4B for FTase; RhoA for GGTase-I) in 20 μl of buffer {50 mM Tris-HCl (pH 7.5), 10 mM MgCl2, […] and 5 mM DTT}. Inhibitors were added at the indicated concentrations. The final DMSO concentration was 2.5% for all samples.
Reactions were carried out for 10 min at 30° C. The reaction mixture was spotted onto a filter paper, treated with 10% trichloroacetic acid (TCA) followed by ethanol and acetone washing. The filter was counted using a scintillation counter. Kinetic assays in which the GGPP concentration was varied employed fixed concentrations of GGTase-I and RhoA, and reactions were carried out for 5 min. Similarly, fixed concentrations of GGTase-I and GGPP were used when the amount of RhoA was varied.

specificity among GGTase-I, FTase and GGTase-II (GGTase-I; FIGS. 20A-20C, varying concentrations) | Ki (GGTase-I; Michaelis-Menten analysis) [nM] | IC50 (GGTase-I; Tables 5, 14) [nM] | inhibition of FTase activity (FIG. 16) (FTase; P3-D9, P3-E5: concentration increased to 100 (unit not given)) | inhibition of FTase activity (FTase; concentration increased to 50,000 nM) | IC50 (K562 cells; Homo sapiens, K562, FIG. 36A, read-out: IC50, inhibition of proliferation of K562 cells) [nM] | IC50 (GGTase-I; Tables 3, 5, 7) [nM] | inhibition of FTase activity (FTase; concentration increased to 100,000 nM) | Structure (SMILES) | inhibition of proliferation of K562 cells (K562 cells; FIG. 23) | mode of GGTase-I inhibition with respect to GGPP (GGTase-I; varying GGPP, fixed RhoA) | mode of GGTase-I inhibition with respect to the protein substrate (RhoA) (GGTase-I; varying RhoA, fixed GGPP)
specifically inhibit GGTase I | 187 ± 13 | 313 | no inhibition of FTase activity | no significant inhibition |  |  |  | Cc1ccccc1S(=O)(=O)N1[C@@H](c2cccc(Cl)c2)C(C(=O)O)=CC[C@H]1c1ccc(Cl)cc1 [P3-E5] | inhibit the growth of the K562 cells | do not compete with GGPP; also recorded: uncompetitive inhibitors | compete with a substrate protein; also recorded: competitive inhibitors
 |  |  |  |  | 2200 | 1000 | No significant inhibition | Cc1ccccc1S(=O)(=O)N1C(c2ccc(Cl)cc2)C(C(=O)NC(Cc2ccccc2)C(N)=O)=CC1C(C)(C)C (centres unmarked) [P61-A6] |  |  | 
